Earlier results as cited in publication PMC4956231, “Molecular Mechanisms for Drug Hypersensitivity Induced by the Malaria Parasite’s Chloroquine Resistance Transporter” (PLoS Pathogens, 2016).

System: P. falciparum line 106/1^76T
Conditions: 106/1^76T (PfCRT^K1); IC50 in line divided by IC50 in drug-sensitive reference strain; cited from earlier work

SMILES: CCN(CC)CCCC(C)Nc1ccnc2cc(Cl)ccc12 (stereo not shown) [CQ, chloroquine]
- Drug susceptibility (In vitro resistance index): 12.95 ± 0.95
